Measured values as given in article PMC6175574, “Kinetic mechanism of coupled binding in sodium-aspartate symporter GltPh” (eLife, 2018).
Where “and” joins values, the source holds several entries; their conditions need not be identical. Identical values can stand only once. Like-named read-outs stand apart in the source and are kept apart here.

Key:
[1] = molecular target: P11W^IFS (Hg^2+-crosslinked P11W/K55C/A364C GltPh, inward-facing state) (Pyrococcus horikoshii, UniProt O59010, A364C/C321A/D37H/E368H/K125H/K132H/K223H/K264H/K40H/K55C/P11W); type: binding; settings: for slope of kr values versus Na^+ concentration: linear fit constrained through the origin, kr from plateaus of ligand binding rates
P11W^IFS (Hg^2+-crosslinked P11W/K55C/A364C GltPh, inward-facing state), sequence (O59010 whole entry P11W/D37H/K40H/K55C/K125H/K132H/K223H/K264H/C321A/A364C/E368H): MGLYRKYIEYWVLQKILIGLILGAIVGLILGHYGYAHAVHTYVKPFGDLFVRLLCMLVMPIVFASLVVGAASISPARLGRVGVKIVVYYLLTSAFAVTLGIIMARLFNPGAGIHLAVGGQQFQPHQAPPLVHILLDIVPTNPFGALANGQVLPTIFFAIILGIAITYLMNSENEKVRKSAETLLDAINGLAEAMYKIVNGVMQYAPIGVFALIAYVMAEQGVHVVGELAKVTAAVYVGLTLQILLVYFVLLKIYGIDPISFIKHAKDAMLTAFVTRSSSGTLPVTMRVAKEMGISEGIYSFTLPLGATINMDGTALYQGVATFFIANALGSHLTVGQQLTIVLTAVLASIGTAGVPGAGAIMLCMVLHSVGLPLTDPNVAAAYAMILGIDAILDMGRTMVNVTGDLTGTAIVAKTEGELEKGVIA
Experimental: (§1) For emission scans, protein samples at 1 µM were prepared in 2 mL of 20 mM Hepes/Tris pH 7.4, 300 mM choline chloride and 1 mM DDM. […] Baseline was determined using buffer only and subtracted from the data. […] For real-time fluorescence measurements of ligand binding, protein samples at 1 µM were incubated in 2 mL fluorometer cell containing 20 mM Hepes/Tris pH 7.4, 300 mM choline chloride and 1 mM DDM with various NaCl concentrations at 25°C. Data were normalized by dividing fractional fluorescence change by the maximal change observed upon addition of saturating ligand concentrations at the end of each experiment. After signal equilibration, ligands were added with fast stirring. Excitation and emission wavelengths were 295 and 350 nm, respectively. Here and elsewhere, data were analyzed using SigmaPlot 12.0 (Systat Software, Inc) and GraphPad Prism 7 (GraphPad Software). All kinetic relaxation curves were fitted to single exponentials.
The full Equation 4 requires fitting of four rate constants, kr, k-r, kon and koff ([Vogt et al., 2012]). […] The data for DL-TBOA binding were fitted to Equation 3.

P11W^IFS [2] = molecular target: T1, P11W^IFS (Pyrococcus horikoshii, UniProt O59010, A364C/C321A/D37H/E368H/K125H/K132H/K223H/K264H/K40H/K55C/P11W); type: binding; settings: for koff: fitted; for kon: reaction 1, T + Na = TNa
T1 sequence (O59010 whole entry P11W/D37H/K40H/K55C/K125H/K132H/K223H/K264H/C321A/A364C/E368H): as above
Description: The kinetic models in Figure 4, Figure 4—figure supplement 4 and Figure 5—figure supplement 1 were implemented in KinTek program (KinTek, Inc) ([Johnson, 2009]) for global parameter fitting and in Copasi ([Hoops et al., 2006]) for simulations. […] Raw relaxation curves, including 21 dissociation and 58 binding reactions were fitted globally in KinTek (Figure 4—figure supplements 2 and 3).
(§2) 68 individual relaxation curves were fitted globally, allowing only the rates of DL-TBOA dissociation to be adjusted (Figure 4—figure supplement 5).

P11W^IFS [3] = molecular target: T1, P11W^IFS; experiment: Fluorescence-based titration using RH421; type: binding
Experimental: After addition of appropriate NaCl concentrations and 200 nM RH421 (Sigma-Aldrich), the samples were incubated at 25°C until fluorescence signal plateaued. […] Excitation and emission wavelengths were 532 and 628 nm, respectively.

wild type GltPh [4] = molecular target: T2, wild type GltPh (Pyrococcus horikoshii, UniProt O59010); settings: 100 mM NaCl; ref Ryan et al., 2009; cited from earlier work
T2 sequence (O59010 whole entry): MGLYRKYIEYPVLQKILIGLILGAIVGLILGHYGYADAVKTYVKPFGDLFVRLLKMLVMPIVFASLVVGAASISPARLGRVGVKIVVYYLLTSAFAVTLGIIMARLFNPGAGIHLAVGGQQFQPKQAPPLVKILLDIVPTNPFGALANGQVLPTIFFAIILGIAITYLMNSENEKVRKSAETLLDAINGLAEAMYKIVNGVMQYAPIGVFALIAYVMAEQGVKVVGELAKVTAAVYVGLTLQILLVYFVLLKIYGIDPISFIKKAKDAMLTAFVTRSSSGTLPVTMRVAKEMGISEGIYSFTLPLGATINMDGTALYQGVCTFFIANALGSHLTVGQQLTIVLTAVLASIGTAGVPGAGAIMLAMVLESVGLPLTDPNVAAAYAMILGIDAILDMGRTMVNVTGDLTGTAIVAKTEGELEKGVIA

wild type GltPh [5] = molecular target: T2, wild type GltPh; experiment: L-asp transport (uptake and exchange) in proteoliposomes; type: biochemical; design: made in house; host or cells: Escherichia coli (DH10b is stated for the mutants); settings: 35°C, 200 mM NaCl external
Experimental: GltPh protein samples were reconstituted into liposomes as previously described ([Boudker et al., 2007]; [Ryan et al., 2009]). In brief, 0.1% L-α-Phosphatidylethanolamine-N-lissamine rhodamine B sulfonyl (Avanti Polar Lipids) was added to with 3:1 (w/w) mixture of E.coli polar lipid extract and egg phosphatidylcholine and dried on rotary evaporator and under vacuum overnight. The mixture was hydrated using 20 mM Hepes/Tris, pH 7.4 and 200 mM KCl buffer at final lipid concentration of 5 mg/ml by 10 freeze/thaw cycles. The suspensions were extruded through 400 nm filter membranes (Whatman) 10 times to form unilamellar liposomes. The rhodamine fluorescence of the liposomes was measured to generate a concentration calibration curve; excitation and emission wavelengths were 560 and 583 nm, respectively. […] Final concentrations of proteoliposomes were determined by rhodamine fluorescence.
For substrate exchange experiments, the internal proteoliposome buffer was replaced with buffer containing 20 mM Hepes/Tris, pH 7.4 and 200 mM NaCl and 100 µM L-asp. […] The washed filter membranes were transferred into scintillation vials, and retained radioactivity was measured using LS6500 scintillation counter (Beckman Coulter). Background uptake was measured in the reaction buffer containing 20 mM Hepes/Tris pH 7.4, 200 mM KCl, 500 nM ^3H-L-asp and 100 nM cold L-asp.

[6] = molecular target: T3, FM-P11W^IFS (R276S/M395R within P11W^IFS background) (Pyrococcus horikoshii, UniProt O59010, A364C/C321A/D37H/E368H/K125H/K132H/K223H/K264H/K40H/K55C/M395R/P11W/R276S); type: binding
T3 construct: made in house; host or cells: Escherichia coli DH10b
T3 sequence (O59010 1-417 P11W/D37H/K40H/K55C/K125H/K132H/K223H/K264H/R276S/C321A/A364C/E368H/M395R): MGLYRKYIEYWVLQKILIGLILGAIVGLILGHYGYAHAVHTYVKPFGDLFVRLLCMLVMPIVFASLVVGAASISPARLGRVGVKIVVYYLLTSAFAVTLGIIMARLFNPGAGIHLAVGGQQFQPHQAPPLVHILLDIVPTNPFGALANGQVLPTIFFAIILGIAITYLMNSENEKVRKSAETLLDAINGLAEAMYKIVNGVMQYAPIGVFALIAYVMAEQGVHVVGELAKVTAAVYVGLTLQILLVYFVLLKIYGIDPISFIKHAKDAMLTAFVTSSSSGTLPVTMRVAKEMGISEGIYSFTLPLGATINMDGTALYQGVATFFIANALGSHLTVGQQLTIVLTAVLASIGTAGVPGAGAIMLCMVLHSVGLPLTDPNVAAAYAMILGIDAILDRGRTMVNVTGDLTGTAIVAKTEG
Experimental: as §1, §2

GltPh Na3 site = test system: GltPh Na3 site; design: method as in Heinzelmann et al., 2011; Heinzelmann et al., 2013; settings: estimated in computational studies, ref Heinzelmann et al., 2011, 2013; cited from earlier work

N[C@H](C(=O)O)[C@H](OCc1ccccc1)C(=O)O (racemic) [DL-TBOA, DL-threo-β-benzyloxyaspartic acid, reference compound]
kobs of DL-TBOA binding ([1]; 8 mM DL-TBOA, 4 mM Na^+, representative experiment, single exponential fit): 0.2106 s⁻¹
slope of kr values versus Na^+ concentration [1]: 26 ± 1.7 M⁻¹ s⁻¹
increase in the rate of unbinding relative to L-asp in kinetic model (P11W^IFS [2]): about 20 fold
koff (P11W^IFS [2]; reaction 3, TNa + A = TANa, P11W^IFS/DL-TBOA model): 11.5 ± 5 s⁻¹
koff (P11W^IFS [2]; reaction 4, TNa2 + A = TANa2, P11W^IFS/DL-TBOA model): 1.72 ± 0.09 s⁻¹

N[C@@H](CC(=O)O)C(=O)O [L-asp, aspartate]
kobs of L-asp binding ([1]; 0.5 mM L-asp, 4 mM Na^+, representative experiment, single exponential fit): 0.0712 s⁻¹
slope of kr values versus Na^+ concentration [1]: 36 ± 0.9 M⁻¹ s⁻¹ and 36 M⁻¹ s⁻¹
slope of log-log plot of L-asp dissociation constants as a function of Na^+ concentration (P11W^IFS [3]): 2.5
Km (wild type GltPh [4]): ~0.1 µM
rate of concentrative Na^+-driven uptake of radiolabeled L-asp compared with rate of L-asp exchange (wild type GltPh [5]): significantly higher

[Na+] [Na^+, sodium]
Kd ([1]; Hill coefficient n fixed to 1, L-asp dissociation experiments, read-out: KD,Na of rapidly equilibrating Na^+ ions (fit to Equation 2)): 40 ± 20 µM
Kd ([1]; Hill coefficient n fixed to 2, L-asp dissociation experiments, read-out: KD,Na of rapidly equilibrating Na^+ ions (fit to Equation 2)): 130 ± 20 µM
Kd ([1]; Hill coefficient n fixed to 3, L-asp dissociation experiments, read-out: KD,Na of rapidly equilibrating Na^+ ions (fit to Equation 2)): 150 ± 13 µM
Kd ([1]; read-out: affinity of the two 'locking' Na^+ ions): ~100 µM
Na^+ concentration at which fluxes through 'second Na^+ binds first' and 'L-asp binds first' branches are equal (P11W^IFS [2]; kinetic model, forward and reverse directions): ~ 3.6 mM and 3.6 mM
kon (P11W^IFS [2]; P11W^IFS/DL-TBOA model, fixed (*)): 36 M⁻¹ s⁻¹
kon (P11W^IFS [2]; P11W^IFS/L-asp model, fixed during fitting (*)): 36 M⁻¹ s⁻¹
remaining binding rates for Na^+ ions (P11W^IFS [2]; set at an arbitrary high value): 10^7 M^−1 s^−1
affinity of binding of the first Na^+ ion (P11W^IFS [2]; suggested by experimental data): no more than −0.5 kcal/mol
increase of the rate of binding of the first Na^+ ion relative to P11W^IFS ([6]; kinetic model adjustment): 4 fold
kon ([6]; reaction 1, T + Na = TNa, FM-P11W^IFS/L-asp model): 144 M⁻¹ s⁻¹
koff ([6]; reaction 1, T + Na = TNa, FM-P11W^IFS/L-asp model, optimized in global fitting (#)): 39 ± 3 s⁻¹
intrinsic affinity of Na3 site (GltPh Na3 site): -16 kcal/mol
